# Data as given in publication PMC6222847, “Application of HPCCC Combined with Polymeric Resins and HPLC for the Separation of Cyclic Lipopeptides Muscotoxins A–C and Their Antimicrobial Activity” (Molecules : A Journal of Synthetic Chemistry and Natural …, 2018).
# *1 amine or outer side, *2 acyl side, *3 side chain or, on linkers, in order; H or OH if unused. Where a SMILES comes first, the peptide text is derived from it. [ ]: non-standard residue; d: D form. X1 = CCCCCC(O)CC(N[*:1])C(O)C(=O)[*:2]; X2 = CC1C[C@@H](C(=O)[*:2])N([*:1])C1; d(aIle) = CC[C@H](C)[C@@H](N)C(=O)O; Dhb = C/C=C(\N)C(=O)O
# How the values were obtained:
# [1] = Partition coefficient (K) in two-phase HPCCC solvent systems; format: physicochemical; settings: 2 mg extract in 2 mL (1 mL per phase), HPLC-ESI-HRMS
# Text: When working with HPCCC, the search for a proper two-phase solvent system has been informed to represent the major part of the work involved in the HPCCC separation. An appropriate two-phase solvent system for HPCCC has to provide a good partition coefficient (0.5 ≤ K ≤ 2.5) for the target compound. […] Additionally, for achieving a good resolution between two closely eluting peaks, the separation factor (α) between the two compounds (α = K2/K1, K2 > K1) should be greater than 1.5 [14, 26]. It is well described that compounds with smaller K values show a poor resolution because they elute closer to the solvent front. On the contrary, those compounds with larger K value are better separated but elute as wider peaks and at later elution times. In the present study, the capacity of different two-phase solvent systems (Table 1) to provide suitable K values of the compounds 1–3 was investigated. The K value is frequently estimated by using HPLC with UV detection, which is calculated by dividing the peak area of the target compound in the upper phase by that of the peak area of the same target compound in the lower phase. However, given that UV chromatogram provided insufficient peak areas for minor muscotoxins, the MS detector was thus used to estimate the K values. By using this approach, the peak area of the molecular ions corresponding to the target compounds were selectively monitored from the base peak chromatogram. As presented in the Table 1, the solvent system 10 (n-hexane, ethyl acetate, ethanol, and water in a ratio of 1:5:1:5) gave suitable K values and a proper separation factor (α) for compounds 2 and 3, as well as a short settling time. […] The improvement of the K value of compound 1 could be achieved by finding out a new solvent system or by modifying the composition of the already selected solvent system. In the present study, the system 10 was acidified by adding acetic acid leading to the system 11 (n-hexane, ethyl acetate, ethanol, water, and acetic acid, 1:5:1:5:1). […] Although the partition coefficients of the target compounds in systems 10 and 11 are strongly correlated, the system 10 ensured a sufficient selectivity (α = 1.5) between the compounds 2 and 3. […] In HPCCC, it is very well established that when the retention of stationary phase is increased, a good chromatographic resolution is achieved. A reduced flow rate of the mobile phase and a high rotational speed of the column favor the retention of the stationary phase inside the HPCCC column. In this study, the flow rate of the mobile phase in the first step and second step of the HPCCC operations was 1 mL/min and the rotational speed was set at 1200 rpm. Moreover, it was observed that a good resolution between the compounds 2 and 3 was achieved when injecting 100 mg of enriched extract.
# Different two-phase solvent systems were prepared using n-hexane, ethyl acetate, ethanol, water, and acetic acid in different proportions (Table 1). The prepared solvent systems were investigated for their capacity to provide suitable partition coefficients (K) of the target compounds. In addition, given that the settling time as well as the density difference between the upper and lower phases of each two-phase solvent system are parameters associated with the retention of stationary phase in the column, they were thus estimated and used as selection criteria. For estimating the partition coefficient (Table 1) of the target compound, 2 mg of extract containing the target compounds was dissolved in 2 mL of a given two-phase solvent system (1 mL per each phase). The test tube containing the sample solution was shaken vigorously, and then left, to equilibrate the two phases, for 20 min. Equal volumes of each phase were then analyzed by HPLC-ESI-HRMS to obtain the partition coefficients (K), which were calculated by dividing the peak area of the target compound in the upper phase by the peak area of compound in the lower phase.
# Alternaria alternata = assay: microbe, parasite or virus in culture; format: cell-based; settings: Alternaria alternata; A. alternata BCC020_0609; Muller Hinton broth with 2% glucose, 300–0.0732 µg/mL (control 32–0.0625), 30 °C 48 h, triplicate; least concentration showing any inhibition; read-out: MIC
# Experimental: (§1) Furthermore, compound 1 was evaluated for its antimicrobial activity against five bacterial isolates; S. aureus (CCM3824), B. subtilis (CCM1999), S. sanguinis (CCM4047), P. aeruginosa (CCM1959), E. coli (CCM2024), and eight fungal isolates; C. friedrichii (BCC020_2879), A. fumigatus (BCC020_2845), F. oxysporum (BCC020_2866), T. harzianum (BCC020_0606), B. sorokiniana (BCC020_1571), M. cucumerina (BCC020_2872), C. globosum (BCC020_2527), and A. alternata (BCC020_0609) using broth two-fold microdilution method following the standard protocol. Briefly, for broth microdilution method, the compounds were serially diluted at varying concentrations between 300 and 0.0732 µg/mL in Mueller Hinton broth (for bacteria) and Muller Hinton broth with 2% glucose (for fungi) in 96-well plates. Culture broth (0.1 mL) was added to each well containing the compound. Plates were incubated aerobically at 37 °C for 16 h (bacteria) and 30 °C for 48 h (for fungi). Negative controls were prepared separately with respective organisms in the same culture media with methanol (the dissolving solvent). Positive controls were also prepared separately with respective organisms. Erythromycin (32–0.0625 µg/mL) was used as positive control for S. aureus and S. sanguinis, gentamycin (32–0.0625 µg/mL) was used as positive control for Bacillus subtilis, E. coli, and P. aeruginosa, whereas fluconazole (32–0.0625 µg/mL) was used as positive control for all the fungal isolates. After incubation, the well with the least concentration of the compound showing any inhibition in the growth was taken as the MIC value for the respective organisms. MIC95 was determined as the concentration required to inhibit or kill 95% of bacterial isolates spectroscopically at 600 nm. Minimum fungicidal concentration (MFCs) were determined after 48 h incubation by removing 10 µL of the contents from wells showing no visible growth and spreading them on to Sabouraud dextrose agar plates. The plates were then incubated for 72 h and MFCs were determined as the concentrations which killed 95–100% of the inoculum. All the experiments were done in triplicate.
# Aspergillus fumigatus = assay: microbe, parasite or virus in culture; format: cell-based; settings: Aspergillus fumigatus; A. fumigatus BCC020_2845; Muller Hinton broth with 2% glucose, 300–0.0732 µg/mL (control 32–0.0625), 30 °C 48 h, triplicate; least concentration showing any inhibition; read-out: MIC
# Experimental: as §1
# Candida friedrichii = assay: microbe, parasite or virus in culture; format: cell-based; settings: Yamadazyma friedrichii; C. friedrichii BCC020_2879; Muller Hinton broth with 2% glucose, 300–0.0732 µg/mL (control 32–0.0625), 30 °C 48 h, triplicate; least concentration showing any inhibition; read-out: MIC
# Experimental: as §1
# Chaetomium globosum = assay: microbe, parasite or virus in culture; format: cell-based; settings: Chaetomium globosum; C. globosum BCC020_2527; Muller Hinton broth with 2% glucose, 300–0.0732 µg/mL (control 32–0.0625), 30 °C 48 h, triplicate; least concentration showing any inhibition; read-out: MIC
# Experimental: as §1
# Fusarium oxysporum = assay: microbe, parasite or virus in culture; format: cell-based; settings: Fusarium oxysporum; F. oxysporum BCC020_2866; Muller Hinton broth with 2% glucose, 300–0.0732 µg/mL (control 32–0.0625), 30 °C 48 h, triplicate; least concentration showing any inhibition; read-out: MIC
# Experimental: as §1
# Monographella cucumerina = assay: microbe, parasite or virus in culture; format: cell-based; settings: Plectosphaerella cucumerina; M. cucumerina BCC020_2872; Muller Hinton broth with 2% glucose, 300–0.0732 µg/mL (control 32–0.0625), 30 °C 48 h, triplicate; least concentration showing any inhibition; read-out: MIC
# Experimental: as §1
# Trichoderma harzianum = assay: microbe, parasite or virus in culture; format: cell-based; settings: Trichoderma harzianum; T. harzianum BCC020_0606; Muller Hinton broth with 2% glucose, 300–0.0732 µg/mL (control 32–0.0625), 30 °C 48 h, triplicate; least concentration showing any inhibition; read-out: MIC
# Experimental: as §1
# Bacillus subtilis = assay: Broth two-fold microdilution; format: cell-based; settings: B. subtilis CCM1999; Mueller Hinton broth, 300–0.0732 µg/mL (control 32–0.0625), 37 °C 16 h, triplicate; MIC = least concentration showing any inhibition in the growth
# Experimental: Furthermore, compound 1 was evaluated for its antimicrobial activity against five bacterial isolates; S. aureus (CCM3824), B. subtilis (CCM1999), S. sanguinis (CCM4047), P. aeruginosa (CCM1959), E. coli (CCM2024), and eight fungal isolates; C. friedrichii (BCC020_2879), A. fumigatus (BCC020_2845), F. oxysporum (BCC020_2866), T. harzianum (BCC020_0606), B. sorokiniana (BCC020_1571), M. cucumerina (BCC020_2872), C. globosum (BCC020_2527), and A. alternata (BCC020_0609) using broth two-fold microdilution method following the standard protocol. Briefly, for broth microdilution method, the compounds were serially diluted at varying concentrations between 300 and 0.0732 µg/mL in Mueller Hinton broth (for bacteria) and Muller Hinton broth with 2% glucose (for fungi) in 96-well plates. Culture broth (0.1 mL) was added to each well containing the compound. […] MIC95 was determined as the concentration required to inhibit or kill 95% of bacterial isolates spectroscopically at 600 nm. Minimum fungicidal concentration (MFCs) were determined after 48 h incubation by removing 10 µL of the contents from wells showing no visible growth and spreading them on to Sabouraud dextrose agar plates. The plates were then incubated for 72 h and MFCs were determined as the concentrations which killed 95–100% of the inoculum. […]
# Sclerotinia sclerotiorum = assay: Disc diffusion antifungal assay; format: cell-based; settings: S. sclerotiorum, 250–1.5625 µg/disk, Czapek-Dox medium, mycelium growth after 4 days by image analysis, triplicate
# Experimental: Due to the unavailability of enough amounts of isolated compounds, the antifungal activity for all the isolated compounds (1–3) was initially tested only against plant pathogenic fungi Sclerotinia sclerotiorum by determining the minimum inhibitory concentration (MIC) using disc diffusion assay. Compounds (1–3) were dissolved in MeOH at different concentrations and further transferred (20 µL) on layer filter paper targets (size 5 mm) to get desired concentrations of 250–1.5625 µg/disk. Discs were placed at the border of Petri dish (average 35 mm) containing Czapek-Dox medium. The mycelial target of the plant pathogenic fungus S. sclerotiorum (0.5 cm in diameter) was inoculated on the opposite sites of dish. […] The growth of fungal mycelium after 4 days in the presence of the studied compounds was evaluated using digital image analysis. […] The images (TIFF format) were converted by thresholds, and the area of binary objects corresponding to size of grown mycelium was measured and evaluated by software NIS-ELEMENTS AR ver. […] The inhibition of the mycelium growth (inhibition zone in percentages) was calculated as the difference between the measurements (in px) of the total area of fungal mycelium (negative controls) and of the area that is covered with mycelium (treated dishes).
# [2] = solvent system 4, n-Hex–EtOAc–EtOH–H2O 7:3:5:5, shaken, 20 min, K = peak area UP/LP
# [3] = solvent system 5, n-Hex–EtOAc–EtOH–H2O 6:4:5:5, shaken, 20 min, K = peak area UP/LP
# [4] = solvent system 7, n-Hex–EtOAc–EtOH–H2O 4:5:4:5, shaken, 20 min, K = peak area UP/LP
# [5] = solvent system 8, n-Hex–EtOAc–EtOH–H2O 3:5:3:5, shaken, 20 min, K = peak area UP/LP
# [6] = solvent system 9, n-Hex–EtOAc–EtOH–H2O 2:5:2:5, shaken, 20 min, K = peak area UP/LP
# [7] = solvent system 11, n-Hex–EtOAc–EtOH–H2O–AcOH 1:5:1:5:1, shaken, 20 min, K = peak area UP/LP
molecule,measurement,setting,value
"C/C=C1\NC(=O)[C@H](CO)NC(=O)[C@@H]([C@@H](C)CC)NC(=O)[C@H](Cc2ccccc2)NC(=O)[C@@H]2CC(C)CN2C(=O)CNC(=O)[C@@H](CCC(N)=O)NC(=O)C(O)C(CC(O)CCCCC)NC(=O)[C@@H]2CCCN2C(=O)[C@@H]([C@@H](C)CC)NC(=O)[C@H](CO)NC1=O (stereo partly shown) [compound 3, muscotoxin B] (cyclo([Dhb]S[d(aIle)]P[X1][dQ]G[X2]F[d(aIle)]S))",Partition Coefficient (K) of Muscotoxins,"[1]; solvent system 1, n-Hex–EtOH–H2O 10:5:5, shake test tube, equilibrated 20 min, K = peak area upper phase/lower phase",0.01
same,Partition Coefficient (K) of Muscotoxins,"[1]; solvent system 2, n-Hex–EtOAc–EtOH–H2O 9:1:5:5, shaken, 20 min, K = peak area UP/LP",0.01
same,Partition Coefficient (K) of Muscotoxins,[1]; [2],0.02
same,Partition Coefficient (K) of Muscotoxins,[1]; [3],0.04
same,Partition Coefficient (K) of Muscotoxins,"[1]; solvent system 6, n-Hex–EtOAc–EtOH–H2O 5:5:5:5, shaken, 20 min, K = peak area UP/LP",0.01
same,Partition Coefficient (K) of Muscotoxins,[1]; [4],0.05
same,Partition Coefficient (K) of Muscotoxins,[1]; [5],0.27
same,Partition Coefficient (K) of Muscotoxins,[1]; [6],1.22
same,Partition Coefficient (K) of Muscotoxins,"[1]; solvent system 10, n-Hex–EtOAc–EtOH–H2O 1:5:1:5, shaken, 20 min, K = peak area UP/LP",1.41
same,Partition Coefficient (K) of Muscotoxins,[1]; [7],2.45
"OC(Cn1cncn1)(Cn1cncn1)c1ccc(F)cc1F [fluconazole, reference compound]",MIC,Alternaria alternata,2 mg/L
same,MIC,Aspergillus fumigatus,32 mg/L
same,MIC,Candida friedrichii,8 mg/L
same,MIC,Chaetomium globosum,2 mg/L
same,MIC,Fusarium oxysporum,8 mg/L
same,MIC,Monographella cucumerina,2 mg/L
same,MIC,Trichoderma harzianum,4 mg/L
gentamycin [reference compound],MIC,Bacillus subtilis,4 mg/L
muscotoxin C [compound 1],Partition Coefficient (K) of Muscotoxins,[1]; [2],0.01
same,Partition Coefficient (K) of Muscotoxins,[1]; [3],0.01
same,Partition Coefficient (K) of Muscotoxins,[1]; [4],0.02
same,Partition Coefficient (K) of Muscotoxins,[1]; [5],0.08
same,Partition Coefficient (K) of Muscotoxins,[1]; [6],0.40
same,Partition Coefficient (K) of Muscotoxins,[1]; [7],1.09
same,lowest dose to manifest its activity,Sclerotinia sclerotiorum,> 250 µg
